# What was measured:
# [1] = tested on: C57 mice; assay: Novelty-suppressed feeding experiment in normal mice; format: in vivo; settings: C57 male mice, intraperitoneal
# Description: Novelty-suppressed feeding experiment (NSF) is a conflict between feeding occurred in a novel environment in a state of starvation after fasting and fear of novel environment. Long-term administration of antidepressant drugs can reduce the conflict response ability of animals, which is manifested by shortened incubation period of the start of feeding. This model is currently widely used in the evaluation of antidepressant and anti-anxiety efficacy.
# The experimental equipment was a 35 cm*35 cm*30 cm (L*W*H) open box, which was overspread with substrate, and a white filter paper with a diameter of 5 cm was placed in the open box, and 2 pieces of food were placed in the middle of the filter paper. The animals were fasted for 12 h before the administration of the drug.
# Two hours before the behavioral test, the animal were moved into the functional room for 2 h to acclimatize. […] The animal were placed from the edge of the experimental open box, and the animal were regarded as successful feeding if their mouths touched the food within 10 min, and then the animal were removed immediately and the time of successful feeding (i.e. Novelty latency) was calculated. The animal were then placed in the normal feeding cage and the time from placement to feeding (i.e. Habituation latency) was also calculated. […] The whole experiment was recorded by camera, and the data were processed and analyzed offline. […]
# [2] = tested on: C57 mice; assay: Forced swimming experiment in normal mice; format: in vivo; settings: C57 male mice, intraperitoneal; for immobility time in forced swimming test: compared with vehicle group
# Description: (§1) The forced swimming test system is primarily used in antidepressant studies.
# (§2) Experimental operation: Mice were individually placed in a cylindrical glass tank 30 cm high and 20 cm in diameter, with a water depth of 15 cm (20 cm for rats), so that the mice are unable to escape from the glass tank and their feet and tails can not touch the bottom of the tank. The water temperature was 23° C.-25° C. The mice were filmed for 6 minutes after entering the water. Since most of the mice were very active in the first two minutes, the last 4 minutes of immobility time were calculated (criteria for determining immobility: the mice stopped struggling in the water, immobility and fine limb movements to maintain balance or float). Groups of mice were operated in parallel.
# CLA096: Three doses were set up in this example, the low, medium and high doses were 5 mg/kg, 20 mg/kg and 40 mg/kg, respectively. The compound was dissolved in 0.5% Tween-40 and sonicated, and should be used right after it was ready.
# Fluoxetine (FLX): FLX with a dose of 10 mg/kg; dissolved in double distilled water, and should be used right after it was ready.
# [3] = tested on: SD rats; assay: Open field test in rats (control and ACTH-induced refractory depression model); format: in vivo; settings: normal animals and ACTH model animals (SD rats); 20 mg/kg intraperitoneal, tested 30 min after administration
# Description: Open field test, also known as the open box test, is a method to evaluate the autonomous behavior, exploratory behavior and anxiety-like behavior of experimental animals in a novel environment. The frequency and duration of the normal activities, the fear of the open environment and the exploration of the new environment and other behaviors of the experimental animals in the open box are used to reflect the autonomous behavior and exploratory behavior of the experimental animals in the unfamiliar environment. The results of the open-field experiments were analyzed to evaluate the depression and anxiety-like behaviors of the animals.
# Experimental operation: the experimental animals were placed in the behavior room 2 hours before the experiment. The animals were placed in the center of the bottom of a black plastic box (size 100*100*45 cm) during the experiment, while video filming was performed. The experiment time was 10 minutes and was conducted in a quiet environment. […] The video was analyzed using the animal spontaneous activity analysis software to obtain information of central area activity time (anxiety-like behavior), total distance of activities (exercise ability), and number of wall climbing (novel environment exploratory behavior) and the like, which can be used to judge the depression or anxiety-like behavior of the animal and degree thereof. […]
# [4] = tested on: SD rats; assay: Forced swimming test in rats (control and ACTH-induced refractory depression model); format: in vivo; settings: 20 mg/kg intraperitoneal, tested 30 min after administration; for antidepressant effect in forced swimming: ACTH group SD rats (refractory depression model)
# Description: as §1, §2
# An animal model of refractory depression was induced in SD rats by continuous intraperitoneal injection of adrenocorticotropic hormone (ACTH) for 3 weeks. This model can block the effects of tricyclic antidepressants and some SSRIs antidepressants, but can not block the efficacy of ketamine and electroconvulsive therapy (ETC). Since ketamine and ETC have specific efficacy in refractory depression, this animal model can be used to preliminary evaluate whether the drug have efficacy in refractory depression.
# 1. SD rats in the model group (ACTG) were continuously injected with ACTH for 3 weeks (once/day), and the test drug was injected intraperitoneally 24 h after the last administration of ACTH. The rats in the control group (CON) were continuously injected intraperitoneally with 0.9% saline (once/day) and similarly the test drug was injected intraperitoneally 24 h after the last administration of saline.
# 3. After the open-field experiment, ACTH was continued to be injected, and after 24 h, the above test drug was injected intraperitoneally and forced swimming was tested 30 min after the administration.
# [5] = target: T1, TREK-1 ion channel (Homo sapiens, UniProt O95069); assay: Whole-cell membrane clamp recording of TREK-1 channel current in transfected CHO-K1 cells; format: cell-based
# T1 construct: expressed in transfected cells; host or cells: CHO-K1
# T1 sequence (O95069 1-426): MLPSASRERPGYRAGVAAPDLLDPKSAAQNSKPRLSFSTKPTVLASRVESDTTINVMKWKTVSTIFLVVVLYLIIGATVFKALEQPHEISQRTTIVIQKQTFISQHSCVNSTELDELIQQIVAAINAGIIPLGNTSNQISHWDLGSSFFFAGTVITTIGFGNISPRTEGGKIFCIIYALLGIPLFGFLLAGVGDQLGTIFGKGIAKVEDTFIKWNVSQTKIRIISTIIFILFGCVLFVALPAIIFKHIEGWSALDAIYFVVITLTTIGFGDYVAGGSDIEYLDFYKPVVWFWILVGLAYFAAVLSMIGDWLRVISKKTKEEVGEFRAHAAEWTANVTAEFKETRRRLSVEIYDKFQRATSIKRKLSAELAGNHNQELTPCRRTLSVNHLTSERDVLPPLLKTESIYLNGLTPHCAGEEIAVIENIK
# Description: Cells were transfected using a cationic liposome transfection method, and the target gene TREK-1 plasmid protein was heterologously expressed in CHO-K1 cells according to the operating standard instructions of Lipo3000 transfection reagent. The ion channel protein was expressed in the cells for 24-48 h followed by electrophysiological experiments.
# Whole-cell membrane clamp recording mode was used for electrophysiological experiments. The transfected cells were placed in a bath containing extracellular fluid, the resistance of the drawn electrode is 3-7 MΩ, the electrode was filled with intracellular fluid, the polished electrode was used to contact the cell membrane, the positive voltage was removed and the negative voltage was gently applied to form a high impedance seal, and then the cell membrane was broken by continuing to apply negative voltage, i.e. whole-cell recording mode was formed. The sampling frequency of the electrophysiological amplifier was 10 kHz, and the data sampling was controlled using a DigiData 1440A conversion interface. The software used for collecting and analyzing whole-cell recording experimental data is Clamfit 10.7, the software used for data analysis and graphing is Origin 8.1, and the software used for statistical analysis is SPSS.
# CLA096: Three doses were set up in this example. The drug was firstly dissolved in DMSO and then diluted with tri-distilled water to […]: 5 µM, 10 µM and 20 µM, respectively.
# The experiment was performed using a cell membrane clamp method to record the current of TREK-1 ion channel in whole cells. Protocol A0 was chosen to record the currents of cells at -80 mV, -60 mV, -40 mV, -20 mV, 0 mV, 20 mV, 40 mV, 60 mV and 80 mV, and Protocol A0 was repeated with different concentrations such as 5 µM, 10 µM and 20 µM of CLA096 being perfused, respectively. After administration, whether it can be eluted was tested.
# [6] = tested on: mice; assay: 14-day subacute toxicity test in mice; format: in vivo; settings: male and female mice; 5, 50 and 100 mg/kg intraperitoneal, once a day, 14 days
# Description: Test drug configuration: CLA096: Three doses were set up: 5 mg/kg, 50 mg/kg and 100 mg/kg, respectively.
# [7] = CLA096 5, 20, 40 mg/kg vs positive control fluoxetine
compound,measurement,setting,value
"CN(Cc1ccccc1)C(=O)CN(c1ccc(Cl)cc1)S(C)(=O)=O [CLA096, N-benzyl-2-(N-(4-chlorophenyl)methylsulfonylamino)-N-methylacetamide]",effect on feeding latency compared with fluoxetine,[1]; [7],significantly better than fluoxetine
same,latency of feeding of fasted mice (novelty-suppressed feeding),"[1]; CLA096 5, 20 and 40 mg/kg, compared with vehicle group",significantly reduced the latency value
same,effect on forced swimming immobility time compared with fluoxetine,[2]; [7],significantly better than fluoxetine
same,immobility time in forced swimming test,"[2]; CLA096 5, 20 and 40 mg/kg",significantly reduces the immobility time of animals at all doses
same,total movement distance in open field,[3],no significant difference
same,antidepressant effect in forced swimming,[4],remained significant
same,immobility time of forced swimming,[4]; control (CON) group SD rats,significantly reduced the immobility time
same,swimming time in forced swimming,[4]; control (CON) group SD rats,significantly increased the swimming time
same,inhibition rate of TREK-1 channel open current,[5]; 5 µM CLA096,0.75 ± 0.02
same,inhibition rate of TREK-1 channel open current,[5]; 10 µM CLA096,0.55 ± 0.05
same,inhibition rate of TREK-1 channel open current,[5]; 20 µM CLA096,0.59 ± 0.01
same,body weight change,[6],no significant changes in body weight
"CNCCC(Oc1ccc(C(F)(F)F)cc1)c1ccccc1 (stereo not drawn) [Fluoxetine, reference compound]",immobility time in forced swimming test,[2]; fluoxetine 10 mg/kg (table says 20),significantly reduces the immobility time
CNC1(c2ccccc2Cl)CCCCC1=O (stereo not drawn) [Ketamine],total movement distance in open field,[3],no significant difference
same,antidepressant effect in forced swimming,[4],remained significant
same,immobility time of forced swimming,[4]; control (CON) group SD rats,significantly reduced the immobility time
CN(C)CCCN1c2ccccc2CCc2ccccc21 [Imipramine],antidepressant effect in forced swimming,[4],blocked
same,immobility time of forced swimming,[4]; control (CON) group SD rats,significantly reduced the immobility time
